Reference: patent US20260265262A1, “CDK2 INHIBITORS AND METHODS OF USING THE SAME” (Cedilla Therapeutics, Inc., priority 2022, published 2026)
pIC50: −log10 of the molar value.

Experiments:
[1] = molecular target: CDK2/Cyclin E1 (Homo sapiens, UniProt P24941); assay: ADP-Glo Luminescent Kinase Assay (CDK2/E1-37C); type: biochemical; details: 0.18 nM CDK2/Cyclin E1, 100 μM ATP, 1.5 μM Histone H1, 37° C., 60 min pre-incubation; read-out: ADPGLO (CDK2/E1-37C): IC50
How it was run: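 Human CDK2/Cyclin E1 preincubated with inhibitor 60 min at 37 °C, then reacted 90 min at 37 °C with final 0.18 nM enzyme, 100 μM ATP, 1.5 μM Histone H1 in HEPES pH 7.5 buffer. ADP formed read by ADP-Glo luminescence; IC50 from four-parameter fit.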

[2] = test system: Kuramochi cells; assay: IncuCyte cell proliferation assay; type: cell-based; details: Kuramochi cells labeled with mApple-H2B, cell count 0 to 72 hours, 20 μM top concentration; read-out: IncuCyte Kuramochi RB-WT: IC50
How it was run: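 Kuramochi cells expressing mApple-H2B were treated with a 10-point, ½-log dilution series (top 20 μM). Fluorescent nuclei were counted by IncuCyte imaging at 0 and 72 h. The fold change in cell count was normalized to DMSO wells and fitted to dose-response curves to give […].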

SMILES	pIC50 [1]	pIC50 [2]
C[C@@H](OCC12CCC(CC1)OC2)[C@H](NC(=O)[C@@H]1CN(C(=O)c2cnn(Cc3ccc(C(F)(F)F)cc3)c2)CC12CN(C(=O)C1(C(F)(F)F)CC1)C2)C(=O)N1CCC(c2ccc(C(=O)O)c(O)c2)CC1 [Example I-81, 4-(1-(O-((2-Oxabicyclo[2.2.2]octan-4-yl)methyl)-N—((S)-6-(1-(4-(trifluoromethyl)benzyl)-1H-pyrazole-4-carbonyl)-2-(1-(trifluoromethyl)cyclopropane-1-carbonyl)-2,6-diazaspiro[3.4]octane-8-carbonyl)-L-threonyl)piperidin-4-yl)-2-hydroxybenzoic acid]	> 6.30	< 4.70
COC(=O)CCNC(=O)[C@@H](NC(=O)[C@@H]1CN(C(=O)c2cnn(Cc3ccc(F)cc3C(F)(F)F)c2)CC12CN(C(=O)C1(C(F)(F)F)CC1)C2)[C@@H](C)OCC12CCC(CC1)OC2 [Example I-110, Methyl 3-((2S,3R)-3-((2-oxabicyclo[2.2.2]octan-4-yl)methoxy)-2-((S)-6-(1-(4-fluoro-2-(trifluoromethyl)benzyl)-1H-pyrazole-4-carbonyl)-2-(1-(trifluoromethyl)cyclopropane-1-carbonyl)-2,6-diazaspiro[3.4]octane-8-carboxamido)butanamido)propanoate]	5.30 to 6.30	< 4.70
CC1(C)C[C@@H]1C(=O)N1CC2(CN(C(=O)c3cncs3)C[C@H]2C(=O)N2CCC[C@H](N(CC(=O)NS(C)(=O)=O)CC3CCCCC3)C2)C1 [Example I-72, 2-((cyclohexylmethyl)((S)-1-((S)-2-((S)-2,2-dimethylcyclopropane-1-carbonyl)-6-(thiazole-5-carbonyl)-2,6-diazaspiro[3.4]octane-8-carbonyl)piperidin-3-yl)amino)-N-(methylsulfonyl)acetamide]	< 5.00	< 4.70
COC(=O)C(C)(C)Oc1ccc(C2CCN(C(=O)[C@@H](NC(=O)[C@@H]3CN(C(=O)c4cnn(Cc5ccc(C(F)(F)F)cc5)c4)CC34CN(C(=O)C3(C(F)(F)F)CC3)C4)[C@@H](C)OCC34CCC(CC3)OC4)CC2)cc1C(F)(F)F (stereo in doubt) [Example I-5]	< 5.00	< 4.70
C[C@@H](OCC12CCC(CC1)OC2)[C@H](NC(=O)[C@@H]1CN(C(=O)c2cnn(Cc3ccc(C(F)(F)F)cc3)c2)CC12CN(C(=O)C1(C(F)(F)F)CC1)C2)C(=O)NCCC(=O)O [Example I-75]	5.00 to 5.30	< 4.70
C[C@@H](OCC1CCOCC1)[C@H](NC(=O)C1CN(C(=O)c2cnn(Cc3ccc(C(F)(F)F)cc3)c2)CC12CN(C(=O)C1(C(F)(F)F)CC1)C2)C(=O)N1CCC(c2ccc(C(=O)O)cc2)CC1 (stereo in doubt) [I-64 2nd, 4-(1-(O-((tetrahydro-2H-pyran-4-yl)methyl)-N—((S)-6-(1-(4-(trifluoromethyl)benzyl)-1H-pyrazole-4-carbonyl)-2-(1-(trifluoromethyl)cyclopropane-1-carbonyl)-2,6-diazaspiro[3.4]octane-8-carbonyl)-L-threonyl)piperidin-4-yl)benzoic acid]	< 5.00	< 4.70
C[C@@H](OCC12CCC(CC1)OC2)[C@H](NC(=O)[C@@H]1CN(C(=O)c2cnc(O)cn2)CC12CN(C(=O)C1(C(F)(F)F)CC1)C2)C(=O)N1CCC(c2ccc(C(F)(F)F)c(C(=O)O)c2)CC1 [Example I-63]	> 6.30	< 4.70
C[C@@H](OCC12CCC(CC1)OC2)[C@H](NC(=O)[C@@H]1CN(C(=O)c2cnn(Cc3ccc(C(F)(F)F)cc3)c2)CC12CN(C(=O)C1(C(F)(F)F)CC1)C2)C(=O)N1CCC(c2ccc(C(=O)O)cc2)CC1 [Example I-12]	> 6.30	< 4.70
C[C@@H](OCC12CCC(CC1)OC2)[C@H](NC(=O)[C@@H]1CN(C(=O)c2cnn(Cc3ccccc3)c2)CC12CN(C(=O)C1(C(F)(F)F)CC1)C2)C(=O)N1CCN(c2ccc(C(=O)O)cc2)CC1 [Example I-87, 4-(4-(O-((2-oxabicyclo[2.2.2]octan-4-yl)methyl)-N—((S)-6-(1-benzyl-1H-pyrazole-4-carbonyl)-2-(1-(trifluoromethyl)cyclopropane-1-carbonyl)-2,6-diazaspiro[3.4]octane-8-carbonyl)-L-threonyl)piperazin-1-yl)benzoic acid]	> 6.30	4.70 to 5.30
C[C@@H](OCC1CCCCC1)[C@H](NC(=O)[C@@H]1CN(C(=O)c2cnn(Cc3ccccc3)c2)CC12CN(C(=O)[C@H]1CC1(C)C)C2)C(=O)N1CCCC[C@@H]1C(=O)O [Example I-35]	> 6.30	< 4.70
C[C@@H](OCC12CCC(CC1)OC2)[C@H](NC(=O)[C@@H]1CN(C(=O)c2cnn(Cc3ccc(C(F)(F)F)cc3)c2)CC12CN(C(=O)C1(C(F)(F)F)CC1)C2)C(=O)N1CCC(c2ccc(C(=O)O)cc2)CC1 [Example I-99]	> 6.30	< 4.70
C[C@@H](OCC12CCC(CC1)OC2)[C@H](NC(=O)[C@@H]1CN(C(=O)c2cnn(Cc3ccccc3C(=O)O)c2)CC12CN(C(=O)C1(C(F)(F)F)CC1)C2)C(=O)NCCC1CCNCC1 (stereo in doubt) [Example I-102]	5.30 to 6.30	< 4.70
C[C@@H](OCC12CCC(CC1)OC2)[C@H](NC(=O)[C@@H]1CN(C(=O)c2cnn(Cc3ccc(C(F)(F)F)cc3)c2)CC12CN(C(=O)C1(C(F)(F)F)CC1)C2)C(=O)N1CCC(c2nccs2)CC1 [Example I-91, (S)—N-((2S,3R)-3-(2-oxabicyclo[2.2.2]octan-4-ylmethoxy)-1-oxo-1-(4-(thiazol-2-yl)piperidin-1-yl)butan-2-yl)-6-(1-(4-(trifluoromethyl)benzyl)-1H-pyrazole-4-carbonyl)-2-(1-(trifluoromethyl)cyclopropanecarbonyl)-2,6-diazaspiro[3.4]octane-8-carboxamide]	> 6.30	5.30 to 6.30
C[C@@H](OCC12CCC(CC1)OC2)[C@H](NC(=O)[C@@H]1CN(C(=O)c2cnn(Cc3ccc(C(F)(F)F)cc3)c2)CC12CN(C(=O)C1(C(F)(F)F)CC1)C2)C(=O)N1CCC(c2ccc(C(=O)O)nc2)CC1 [Example I-92, 5-(1-(O-((2-oxabicyclo[2.2.2]octan-4-yl)methyl)-N—((S)-6-(1-(4-(trifluoromethyl)benzyl)-1H-pyrazole-4-carbonyl)-2-(1-(trifluoromethyl)cyclopropane-1-carbonyl)-2,6-diazaspiro[3.4]octane-8-carbonyl)-L-threonyl)piperidin-4-yl)picolinic acid]	> 6.30	< 4.70

The next lines start with results.

pIC50 [1]	SMILES	pIC50 [2]
> 6.30	CNC(=O)C(C)(C)CNC(=O)[C@@H](NC(=O)[C@@H]1CN(C(=O)c2cnn(Cc3ccccc3)c2)CC12CN(C(=O)[C@H]1CC1(C)C)C2)[C@@H](C)OCC1CCCCC1 [Example I-37, (S)-6-(1-benzyl-1H-pyrazole-4-carbonyl)-N-((2S,3R)-3-(cyclohexylmethoxy)-1-((2,2-dimethyl-3-(methylamino)-3-oxopropyl)amino)-1-oxobutan-2-yl)-2-((S)-2,2-dimethylcyclopropane-1-carbonyl)-2,6-diazaspiro[3.4]octane-8-carboxamide]	4.70 to 5.30
> 6.30	COC(=O)CCNC(=O)[C@@H](NC(=O)[C@@H]1CN(C(=O)c2cnn(Cc3ccc(F)cc3)c2)CC12CN(C(=O)C1(C(F)(F)F)CC1)C2)[C@@H](C)OCC12CCC(CC1)OC2 [Example I-111, Methyl 3-((2S,3R)-3-((2-oxabicyclo[2.2.2]octan-4-yl)methoxy)-2-((S)-6-(1-(4-fluorobenzyl)-1H-pyrazole-4-carbonyl)-2-(1-(trifluoromethyl)cyclopropane-1-carbonyl)-2,6-diazaspiro[3.4]octane-8-carboxamido)butanamido)propanoate]	< 4.70
> 6.30	C[C@@H](OCC1CCCCC1)[C@H](NC(=O)[C@@H]1CN(C(=O)c2cnn(Cc3ccccc3)c2)CC12CN(C(=O)[C@H]1CC1(C)C)C2)C(=O)NS(C)(=O)=O [Example I-18]	< 4.70
> 6.30	C[C@@H](OCC12CCC(CC1)OC2)[C@H](NC(=O)[C@@H]1CN(C(=O)c2cnn(Cc3ccccc3C(=O)O)c2)CC12CN(C(=O)C1(C(F)(F)F)CC1)C2)C(=O)N1CCNCC1 [Example I-109]	< 4.70
> 6.30	C[C@@H](OCC12CCC(CC1)OC2)[C@H](NC(=O)[C@@H]1CN(C(=O)c2cnn(Cc3ccc(C(F)(F)F)cc3C(=O)O)c2)CC12CN(C(=O)C1(C(F)(F)F)CC1)C2)C(=O)N1CCC(c2nccs2)CC1 [Example I-83, ((4-((S)-8-(((2S,3R)-3-((2-oxabicyclo[2.2.2]octan-4-yl)methoxy)-1-oxo-1-(4-(thiazol-2-yl)piperidin-1-yl)butan-2-yl)carbamoyl)-2-(1-(trifluoromethyl)cyclopropane-1-carbonyl)-2,6-diazaspiro[3.4]octane-6-carbonyl)-1H-pyrazol-1-yl)methyl)-5-(trifluoromethyl)benzoic acid]	< 4.70
5.30 to 6.30	C[C@@H](OCC12CCC(CC1)OC2)[C@H](NC(=O)[C@@H]1CN(C(=O)c2cnn(CC3CCNCC3)c2)CC12CN(C(=O)C1(C(F)(F)F)CC1)C2)C(=O)N1CCC(c2ccccc2C(=O)O)CC1 [Example I-101]	< 4.70
< 5.00	COC(=O)C(C)(C)Oc1ccc(C2CCN(C(=O)[C@@H](NC(=O)[C@@H]3CN(C(=O)c4cnn(Cc5ccc(C(F)(F)F)cc5)c4)CC34CN(C(=O)C3(C(F)(F)F)CC3)C4)[C@@H](C)OCC34CCC(CC3)OC4)CC2)cc1C(F)(F)F [Example I-98]	< 4.70
